Like-named read-outs stand apart in the source and are kept apart here. Starred links: 1 amine or outer side, 2 acyl side, 3 side chain; linkers in the order of their positions; H or OH if unused. Non-standard residues stand in square brackets, D forms with d. Groups on a side chain read outwards from the residue. *: point of attachment. Decanoyl(10-(4-HOOC-PhO)) = O=C(O)c1ccc(OCCCCCCCCCC(=O)*)cc1; C20 diacid = O=C(O)CCCCCCCCCCCCCCCCCCC(=O)*; C18 diacid = O=C(O)CCCCCCCCCCCCCCCCC(=O)*; C16 diacid = O=C(O)CCCCCCCCCCCCCCC(=O)*; γGlu = O=C(O)[C@H](CCC(=O)[*:2])N[*:1]; εLys = N[C@@H](CCCCN[*:1])C(=O)[*:2]; Trx = NC[C@H]1CC[C@H](C(=O)O)CC1; AEEA = NCCOCCOCC(=O)O; Aib = CC(C)(N)C(=O)O
Tests used:
[1] = molecular target: T1, human amylin receptor (hAmyR3) (Homo sapiens, UniProt O60896+P30988); assay: Human amylin receptor in vitro potency assay (CRE-luciferase reporter, BHK cells); type: cell-based;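 further: BHK cells expressing human calcitonin receptor plus RAMP3 (amylin-3 receptor) with a CRE-luciferase reporter, agonist activity read as luminescence from cAMP-driven transcription, 7-point serial dilutions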
T1 construct: host or cells: BHK cells (Hollex-1 line: human calcitonin receptor (a) + CRE-Luc), further transfected with human RAMP3

human GLP-1 receptor = molecular target: T2, human GLP-1 receptor (Homo sapiens, UniProt P43220); assay: Human GLP-1 receptor in vitro potency assay (CRE-luciferase reporter, BHK cells); type: cell-based
T2 construct: expressed in transfected cells; host or cells: BHK (Baby Hamster Kidney) cells, clone BHK 467-12A KZ-10, stably transfected, with CRE-luciferase reporter
Procedure: It is thus possible to measure GLP-1 receptor activity using a CRE-luciferase reporter gene introduced into Baby Hamster Kidney (BHK) cells co-expressing the GLP-1 receptor.
Cells were aliquoted and stored at -180° C. until use.
Plates were sealed and incubated at room temperature with gentle shaking for 30 minutes while protected from light. Luminescence was detected on a luminescence plate reader e.g. a Synergy 2 (BioTek).

[2] = Table 4a, BHK hAmyR3/CRE-Luc cells, 3 hours, read-out: Human AmyR3 potency [EC50 (pM)]
[3] = Table 4a, BHK cells expressing human GLP-1R, CRE-Luc, 3 hours, read-out: Human GLP-1R potency [EC50 (pM)]
[4] = Table 4c, further comparator compounds, read-out: Human AmyR3 potency [EC50 (pM)]
[5] = Table 4c, further comparator compounds

T2 sequence (P43220 24-463): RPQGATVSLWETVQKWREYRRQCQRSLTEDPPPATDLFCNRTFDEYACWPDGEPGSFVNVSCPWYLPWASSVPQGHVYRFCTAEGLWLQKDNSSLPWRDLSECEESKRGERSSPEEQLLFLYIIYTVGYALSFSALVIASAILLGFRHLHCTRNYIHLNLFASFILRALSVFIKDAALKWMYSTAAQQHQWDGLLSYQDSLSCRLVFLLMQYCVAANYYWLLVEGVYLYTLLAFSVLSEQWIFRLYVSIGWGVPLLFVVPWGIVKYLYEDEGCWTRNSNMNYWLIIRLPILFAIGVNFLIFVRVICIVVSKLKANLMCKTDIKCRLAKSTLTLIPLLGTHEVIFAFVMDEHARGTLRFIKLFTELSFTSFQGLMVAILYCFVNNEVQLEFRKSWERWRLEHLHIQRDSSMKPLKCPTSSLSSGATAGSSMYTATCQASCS
T1 sequence (P30988 25-474): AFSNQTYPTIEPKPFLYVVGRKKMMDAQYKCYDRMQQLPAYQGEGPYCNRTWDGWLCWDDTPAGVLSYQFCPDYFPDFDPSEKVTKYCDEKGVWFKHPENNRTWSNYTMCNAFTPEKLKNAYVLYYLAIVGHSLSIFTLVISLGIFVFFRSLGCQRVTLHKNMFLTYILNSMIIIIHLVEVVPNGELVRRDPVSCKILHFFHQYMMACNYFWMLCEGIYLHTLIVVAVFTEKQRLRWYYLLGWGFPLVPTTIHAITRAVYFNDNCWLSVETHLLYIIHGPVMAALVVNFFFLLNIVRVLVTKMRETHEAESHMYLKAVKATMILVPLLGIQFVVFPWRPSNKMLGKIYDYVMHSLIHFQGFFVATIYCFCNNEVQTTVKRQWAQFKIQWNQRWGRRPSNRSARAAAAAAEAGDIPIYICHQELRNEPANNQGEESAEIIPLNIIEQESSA
T1 sequence (O60896 24-148): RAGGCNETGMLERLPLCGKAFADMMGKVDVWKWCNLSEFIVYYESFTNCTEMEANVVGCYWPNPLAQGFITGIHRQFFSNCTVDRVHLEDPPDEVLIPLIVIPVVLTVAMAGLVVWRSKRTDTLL

Row | Substance | EC50 [1, 2] | EC50 (human GLP-1 receptor; [3]) | also measured
1 | H-H[Aib]EGTFTSDVSSYLEEQAARK([γGlu-γGlu-γGlu-γGlu-C20 diacid])FIAWLVRGRGGGGGEASELSTAALGRLSAELHELATLPRTETGSGSP-NH2 [Compound 0633] | 5.3 pM | 28.2 pM | –
2 | H-H[Aib]EGTFTSDVSSYLEGQAAK([AEEA-AEEA-γGlu-C18 diacid])EFIAWLVRGRGGGGGGGGGGGGGEASELSTAALGRLSAELHELATLPRTETGSGSP-NH2 [Compound 0092] | 10.9 pM | 18.5 pM | –
3 | H-H[Aib]EGTFTSDVSSYLEGQAAK([AEEA-AEEA-γGlu-C18 diacid])EFIAWLVRGRGQEPGQAPEASELSTAALGRLSAELHELATLPRTETGSGSP-NH2 [Compound 0026] | 14 pM | 8.8 pM | –
4 | H-H[Aib]EGTFTSDVSSYLEGQAAK([AEEA-AEEA-γGlu-C20 diacid])EFIAWLVRGRGGGGGGGGGEASELSTAALGRLSAELHELATLPRTETGSGSP-NH2 [Compound 0094] | 11.3 pM | 7.5 pM | –
5 | H-H[Aib]EGTFTSDVSSYLEGQAAK([AEEA-AEEA-γGlu-C20 diacid])EFIAWLVRGRGQAPGQEPEASELSTAALGRLSAELHELATLPRTETGSGSP-NH2 [Compound 0157] | 18.4 pM | 28.7 pM | –
6 | H-H[Aib]EGTFTSDVSSYLEGQAAK([AEEA-AEEA-γGlu-C20 diacid])EFIAWLVRGRGQEPGQAPEASELSTAALGRLSAELHELATLPRTETGSGSP-NH2 [Compound 0202] | 28.4 pM | 10.5 pM | –
7 | H-H[Aib]EGTFTSDVSSYLEGQAAK([εLys-AEEA-AEEA-γGlu-C18 diacid])EFIAWLVRGRGGGGGGGGGEASELSTAALGRLSAELHELATLPRTETGSGSP-NH2 [Compound 0159] | 19.3 pM | 30.3 pM | –
8 | H-H[Aib]EGTFTSDVSSYLEGQAAKEFIAWLVRGRK([εLys-AEEA-AEEA-γGlu-C18 diacid])GGEASELSTAALGRPSAELHELATLPRTETGSGSP-NH2 [Comparator compound 0185, reference compound] | – | – | EC50 [1, 4]: 5660 pM; Ability to agonise the amylin receptor, in words ([1]; Tables 4a-4c): impaired their ability to agonise (activate) the amylin receptor; EC50 (human GLP-1 receptor; [5]): 13.1 pM
9 | H-H[Aib]EGTFTSDVSSYLEGQAAKEIFAWLVRGRK([εLys-AEEA-AEEA-γGlu-C18 diacid])GGEASELSTAALGRLSAELHELATLPRTETGSGSP-NH2 [Comparator compound 0164, reference compound] | – | – | EC50 [1, 4]: 29.6 pM; EC50 (human GLP-1 receptor; [5]): 852 pM; Ability to agonise the GLP-1 receptor, in words (human GLP-1 receptor; Tables 4a-4c): impaired their ability to agonise (activate) the GLP-1 receptor
10 | H-H[Aib]EGTFTSDVSSYLEGQAAREFIAWLVRGRGQEPK([AEEA-AEEA-γGlu-C18 diacid])GQAPASRLSTEALGRLSAELHELATLPRTETGSGSP-NH2 [Compound 0191] | 54.8 pM | 5.9 pM | –
11 | H-H[Aib]EGTFTSK([AEEA-AEEA-γGlu-Trx-C20 diacid])VSSYLEEQAAREFIEWLVRGRGEASELSTAALGRLSAELHELATLPRTETGSGSP-NH2 [Compound 0417] | 21 pM | 97.8 pM | –
12 | HGEGTFTSDVSSYLEEQAARK([AEEA-AEEA-γGlu-Decanoyl(10-(4-HOOC-PhO))])FIEWLVRGK([AEEA-AEEA-γGlu-Decanoyl(10-(4-HOOC-PhO))])GEGGGGGEASELSTAALGRLSAELHELATLPRTETGSGSP-NH2 [Compound 0097] | – | – | EC50 [1]: 93.1 pM; EC50 (human GLP-1 receptor): 10 pM
13 | HGEGTFTSDVSSYLEEQAARK([AEEA-AEEA-γGlu-Decanoyl(10-(4-HOOC-PhO))])FIEWLVRGK([AEEA-AEEA-γGlu-Decanoyl(10-(4-HOOC-PhO))])GEGGGGGGGGGEASELSTAALGRLSAELHELATLPRTETGSGSP-NH2 [Compound 0098] | – | – | EC50 [1]: 15.6 pM; EC50 (human GLP-1 receptor): 7.9 pM
14 | HWEGTFTSD-K([2-[2-[2-[[2-[2-[2-[[(4S)-4-Carboxy-4-[[4-[(19-Carboxynonadecanoylamino)Methyl]Cyclohexanecarbonyl]Amino]Butanoyl]Amino]Ethoxy]Ethoxy]Acetyl]Amino]Ethoxy]Ethoxy]Acetyl])-SSYLEEQAAREFIEWLVRGRGEASELSTAALGRLSAELHELATLPRTETGSGSP-amide [Compound 0272] | 11.3 pM | 9.2 pM | –
15 | HWEGTFTSD-K([(2S)-2-Amino-6-[[2-[2-[2-[[2-[2-[2-[[(4S)-4-Carboxy-4-[[4-[(19-Carboxynonadecanoylamino)Methyl]Cyclohexanecarbonyl]Amino]Butanoyl]Amino]Ethoxy]Ethoxy]Acetyl]Amino]Ethoxy]Ethoxy]Acetyl]Amino]Hex Anoyl])-SSYLEEQAAREFIEWLVRGRGEASELSTAALGRLSAELHELATLPRTETGSGSP-amide [Compound 0433] | 12.9 pM | 30.7 pM | –

Second part, led by results:

Row | EC50 [1, 2] | EC50 (human GLP-1 receptor; [3]) | Substance | also measured
16 | 26.4 pM | 17 pM | H-H[Aib]EGTFTSDVSSYLEEQAARK([AEEA-AEEA-γGlu-C20 diacid])FIEWLVRGASELSTAALGRLSAELHELATLPRTETGSGSP-NH2 [Compound 0581] | –
17 | 27.3 pM | 11.9 pM | H-H[Aib]EGTFTSDVSSYLEEQAARK([γGlu-C18 diacid])FIAWLVRGRGGGGGGGGK([γGlu-C18 diacid])EASELSTAALGRLSAELHELATLPRTETGSGSP-NH2 [Compound 0160] | –
18 | 7.7 pM | 20.7 pM | H-H[Aib]EGTFTSDVSSYLEGQAAK([AEEA-AEEA-γGlu-C18 diacid])EFIAWLVRGRGGGGEASELSTAALGRLSAELHELATLPRTETGSGSP-NH2 [Compound 0040] | –
19 | 8.6 pM | 7.5 pM | H-H[Aib]EGTFTSDVSSYLEGQAAK([AEEA-AEEA-γGlu-C18 diacid])EFIAWLVRGRGGGGGGGGGGGGGGGGGEASELSTAALGRLSAELHELATLPRTETGSGSP-NH2 [Compound 0093] | –
20 | 26.5 pM | 13.7 pM | H-H[Aib]EGTFTSDVSSYLEGQAAK([AEEA-AEEA-γGlu-C18 diacid])EFIAWLVRGRGGQEPGQEPEASELSTAALGRLSAELHELATLPRTETGSGSP-NH2 [Compound 0019] | –
21 | 22.6 pM | 22.6 pM | H-H[Aib]EGTFTSDVSSYLEGQAAK([AEEA-AEEA-γGlu-C18 diacid])EFIAWLVRGRGQAPGQEPEASELSTAALGRLSAELHELATLPRTETGSGSP-NH2 [Compound 0156] | –
22 | 49.5 pM | 7.9 pM | H-H[Aib]EGTFTSDVSSYLEGQAAREFIAWLVRGK([AEEA-AEEA-γGlu-C18 diacid])GEGEGEEASELSTAALGRLSAELHELATLPRTETGSGSP-NH2 [Compound 0009] | –
23 | 37 pM | 5.4 pM | H-H[Aib]EGTFTSDVSSYLEGQAAREFIAWLVRGRGEGEGEK([AEEA-AEEA-γGlu-C18 diacid])EASELSTAALGRLSAELHELATLPRTETGSGSP-NH2 [Compound 0010] | –
24 | 55.8 pM | 2.2 pM | H-H[Aib]EGTFTSDVSSYLEGQAAREFIAWLVRGRGQEPGQAPK([AEEA-AEEA-γGlu-C18 diacid])EASELSTAALGRLSAELHELATLPRTETGSGSP-NH2 [Compound 0085] | –
25 | 46.2 pM | 5.4 pM | H-H[Aib]EGTFTSDVSSYLEGQAAREFIAWLVRGRK([AEEA-AEEA-γGlu-C18 diacid])GQEPGQAPEASELSTAALGRLSAELHELATLPRTETGSGSP-NH2 [Compound 0083] | –
26 | 34.3 pM | 13.7 pM | H-H[Aib]EGTFTSDVSSYLEK([AEEA-AEEA-γGlu-C16 diacid])QAAREFIAWLVRGRGGGGGASELSTAALGRLSK([AEEA-AEEA-γGlu-C16 diacid])ELHELATLPRTETGSGSP-NH2 [Compound 0294] | –
27 | 24 pM | 2.8 pM | HAEGTFTSDVSSYLEEK([AEEA-AEEA-γGlu-C18 diacid])AAREFIEWLVRGRGEASELSTAALGRLSAELHELATLPRTETGSGSP-NH2 [Compound 0472] | –

From patent US20230331803A1, “CO-AGONISTS OF THE GLP-1 AND AMYLIN RECEPTORS” (priority 2020, published 2023)
